The record followed here is ChEMBL document CHEMBL5727130, “Pyridone derivative, pharmaceutical containing the same and methods of use thereof” (2018).

Bounds are passed on as bounds.

This assay can be described thus: Inhibition Assay: The TACE inhibition test was carried out by measuring TACE activity in the presence and the absence of the test substance using the thus-obtained TACE as an enzyme, and a fluorescent synthetic substrate Nma(N-methylanthranilic acid)-Leu-Ala-Gln-Ala-Val-Arg-Ser-Ser-Lys(Dnp(dinitrophenyl))-D-Arg-NH2 (SEQ ID NO: 1) including the TACE-cleaved sequence of a membrane-bound TNF as a substrate. The TACE inhibition test method is shown below. Namely, 90 μL of an enzyme solution prepared with an assay buffer A (50 mM tris-hydrochloric acid buffer (pH 7.5) including 200 mM sodium chloride, 5 mM calcium chloride, 10 μM zinc sulfate, and 2 mg/mL bovine serum albumin) and 90 μL of a fluorescent synthetic substrate prepared with an assay buffer B (50 mM tris-hydrochloric acid buffer (pH 7.5) including 200 mM sodium chloride, 5 mM calcium chloride, 10 μM zinc sulfate, and 0.05% PLURONIC F-68) were mixed together, and reacted at 37° C. for 1.5 hours. Enzyme activity was then determined by measuring with a fluorescence intensity meter (Labsystems, Fluoroskan Ascent) at an excitation wavelength of 355 nm and a measurement wavelength of 460 nm.

For orientation: IC50 means the midpoint of a concentration-inhibition curve. For the molecule `Cc1cccn(CC2(c3ccc(F)c(F)c3)NC(=O)NC2=O)c1=O` (configuration not stated), the IC50 is under 100 nM.
On to `Cc1cccn(CC2(c3ccc(Oc4ccc(Cl)cc4)cc3)NC(=O)NC2=O)c1=O` (configuration not stated), for which the IC50 was under 100 nM.
